This is an account of results in patent US20100075957A1, “AMINODIHYDROTHIAZINE DERIVATIVES SUBSTITUTED WITH A CYCLIC GROUP” (SHIONOGI & CO., LTD., priority 2007, published 2010).

Each structure is given as a SMILES string. pIC50: −log10 of the molar value. A value given as a limit tells only on which side of the number the result lay.

The target of the first assay is T1, Recombinant human BACE-1 (Homo sapiens, UniProt P56817).
T1 construct: purchased R&D Systems
T1 sequence (P56817 46-501): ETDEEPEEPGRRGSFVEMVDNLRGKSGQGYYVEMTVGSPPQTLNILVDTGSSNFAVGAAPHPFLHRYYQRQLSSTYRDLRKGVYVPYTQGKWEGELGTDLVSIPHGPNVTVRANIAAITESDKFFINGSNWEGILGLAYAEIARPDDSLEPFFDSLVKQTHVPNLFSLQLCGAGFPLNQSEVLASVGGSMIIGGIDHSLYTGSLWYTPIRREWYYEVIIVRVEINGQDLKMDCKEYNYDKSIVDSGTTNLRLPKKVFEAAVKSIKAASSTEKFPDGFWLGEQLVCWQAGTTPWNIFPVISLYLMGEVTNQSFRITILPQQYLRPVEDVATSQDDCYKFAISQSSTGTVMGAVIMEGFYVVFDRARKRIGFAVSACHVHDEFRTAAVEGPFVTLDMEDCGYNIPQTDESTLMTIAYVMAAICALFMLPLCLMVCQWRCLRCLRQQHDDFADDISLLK
As to the kind of experiment: Assay of β-secretase-inhibiting activity.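 Further: substrate is a peptide carrying biotin and europium cryptate, after the enzyme reaction, Streptavidin-XL665 is added and incubated 1 h at 30 °C before fluorescence reading.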 It counts as biochemical. Conditions: Recombinant human BACE-1 7.4 nM, substrate peptide 18 nM, pH 5.0, 30° C., 3 hours; Table 139; read-out: IC50.
In the case of `COc1nc(Nc2ccc(F)c([C@]3(C)CCSC(N)=N3)c2)nc(OC)n1` [Compound 126], the pIC50 is 5.67.

On to `C[C@@]1(c2cc(NC(=O)CCc3ccc(O)c(O)c3)ccc2F)CCSC(N)=N1` [Compound 155], for which the pIC50 was 5.22.

Turning to `C[C@@]1(c2cccc(NC(=O)c3ccc(OCc4ccc(F)cc4)cn3)c2)CCSC(N)=N1` [Compound 111], the pIC50 is 6.74.

As to `CSc1ccc(C(=O)Nc2ccc(F)c([C@]3(C)CCSC(N)=N3)c2)s1` [Compound 38], the pIC50 was 6.85.

Turning to `C[C@@]1(c2cc(NC(=O)c3cnc(-c4ccco4)cn3)ccc2F)CCSC(N)=N1` [Compound 136], the pIC50 was 6.96.

In the case of `Cc1cc(C(=O)Nc2cccc([C@]3(C)CCSC(N)=N3)c2)c(C)o1` [Compound 3], the pIC50 is 7.10.

Turning to `CCSc1cnc(C(=O)Nc2cccc([C@]3(C)CCSC(N)=N3)c2)cn1` [Compound 80], the pIC50 is 7.15.

As for `COCCOc1cnc(C(=O)Nc2cccc([C@]3(C)CCSC(N)=N3)c2)cn1` [Compound 70], the pIC50 is 7.05.

With `COCCOc1ccc(C(=O)Nc2ccc(F)c([C@]3(C)CCSC(N)=N3)c2)nc1` [Compound 93], the pIC50 was 7.10.

Turning to `C#CCCOc1cnc(C(=O)Nc2cccc([C@]3(C)CCSC(N)=N3)c2)cn1` [Compound 105], the pIC50 was 6.89.

On to `C=Cc1cnc(C(=O)Nc2cccc([C@]3(C)CCSC(N)=N3)c2)cn1` [Compound 66], for which the pIC50 is 6.82.

The same assay, now with this note: Recombinant human BACE-1 7.4 nM, substrate peptide 18 nM, pH 5.0, 30° C., 3 hours; Table 140; read-out: IC50.
On to `C[C@@]1(c2cc(NC(=O)c3ncc(O)cc3F)ccc2F)CCSC(N)=N1` [Compound 491], for which the pIC50 was 7.05.

For `C[C@@]1(c2cc(NC(=O)c3cnc(-n4ccc(C(F)(F)F)n4)cn3)ccc2F)CCSC(N)=N1` [Compound 580], the pIC50 was 6.89.

For `Cc1nc(Br)sc1C(=O)Nc1cncc([C@]2(C)CCSC(N)=N2)c1` [Compound 497], the pIC50 was 7.05.

Consider `C[C@@]1(c2cc(NC(=O)c3cnc(-c4ccsc4)cn3)ccc2F)CCSC(N)=N1` [Compound 537], for which the pIC50 was 7.70.

Regarding `C[C@@]1(c2cncc(NC(=O)c3ccc(Br)s3)c2)CCSC(N)=N1` [Compound 514], the pIC50 was 6.62.

With `COc1cc(C(=O)Nc2cncc([C@]3(C)CCSC(N)=N3)c2)n(C)n1` [Compound 473], the pIC50 was 6.77.

As for `C[C@@]1(c2cc(NC(=O)c3ccc(OCC(N)=O)cn3)ccc2F)CCSC(N)=N1` [Compound 559], the pIC50 is 6.38.

Take `C[C@@]1(c2cncc(NC(=O)c3cnc(Cl)cn3)c2)CCSC(N)=N1` [Compound 597]: the pIC50 is 7.15.

On to `C[C@@]1(c2cc(NC(=O)c3cn4ccccc4n3)ccc2F)CCSC(N)=N1` [Compound 502], for which the pIC50 was 7.40.

The same assay, now with this note: Recombinant human BACE-1 7.4 nM, substrate peptide 18 nM, pH 5.0, 30° C., 3 hours; Table 141; read-out: IC50.
Consider `CC1(C)C[C@@](C)(c2cc(NC(=O)c3ncccc3F)ccn2)N=C(N)S1` [Compound 655], for which the pIC50 is 8.00.

Regarding `Cc1cnc(C(=O)Nc2ccc(F)c([C@@]3(C)N=C(N)SCC34CC4)c2)cn1` [Compound 674], the pIC50 is 8.00.

For `Cc1nc(C(=O)Nc2ccc(F)c([C@@]3(C)N=C(N)SCC3(F)F)c2)co1` [Compound 664], the pIC50 was 7.70.

With `C[C@@]1(c2cc(NC(=O)c3coc(C(F)(F)F)n3)ccc2F)CCSC(N)=N1` [Compound 669], the pIC50 was 8.00.

In the case of `Cc1cnc(C(=O)Nc2ccc(F)c([C@@]3(C)N=C(N)SCC3(F)F)c2)cn1` [Compound 662], the pIC50 is 6.77.

On to `COc1nc(C(=O)Nc2ccc(F)c([C@]3(C)CCSC(N)=N3)c2)co1` [Compound 667], for which the pIC50 was 7.70.

The same assay, now with this note: Recombinant human BACE-1 7.4 nM, substrate peptide 18 nM, pH 5.0, 30° C., 3 hours; time-resolved fluorescence ratio 665/620; read-out: IC50 values (50% inhibitory concentration against the enzymatic activity).
For the compound `Cc1cnc(C(=O)Nc2ccc(Br)c(C3(C)CCSC(N)=N3)c2)cn1` (centres unmarked) [Compound 492], the pIC50 is no less than 6.00.

For `C#CCOc1cnc(C(=O)Nc2ccc(F)c([C@]3(C)CC(C)(C)SC(N)=N3)c2)cn1` [Compound 692], the pIC50 was no less than 6.00.

For `Cc1cc(C(=O)Nc2ccc(F)c([C@]3(C)CCSC(N)=N3)c2)no1` [Compound 20], the pIC50 is no less than 6.00.

As to `C[C@@]1(c2cc(NC(=O)c3cc4ccccc4[nH]3)ccc2F)CCSC(N)=N1` [Compound 536], the pIC50 is no less than 6.00.

Take `C[C@@]1(c2cccc(NC(=O)C#Cc3ccccc3)c2)CCSC(N)=N1` [Compound 64]: the pIC50 was no less than 6.00.

In the case of `CCC/C=C/c1cnc(C(=O)Nc2ccc(F)c([C@]3(C)CCSC(N)=N3)c2)cn1` [Compound 124], the pIC50 is no less than 6.00.

Turning to `COCCCOc1ccc(C(=O)Nc2cccc([C@]3(C)CCSC(N)=N3)c2)nc1` [Compound 96], the pIC50 was no less than 6.00.

For the compound `Cc1nc(C(=O)Nc2ccnc([C@]3(C)CCSC(N)=N3)c2)co1` [Compound 612], the pIC50 was no less than 6.00.

For `C/C=C/COc1cnc(C(=O)Nc2cccc([C@]3(C)CCSC(N)=N3)c2)cn1` [Compound 83], the pIC50 is no less than 6.00.

For `COCCOc1ccc(C(=O)Nc2cccc([C@]3(C)CCSC(N)=N3)c2)nc1` [Compound 95], the pIC50 was no less than 6.00.

Turning to `COC/C=C\c1cnc(C(=O)Nc2ccc(F)c([C@]3(C)CCSC(N)=N3)c2)cn1` [Compound 117], the pIC50 was no less than 6.00.

Turning to `COCC#CCOc1ccc(C(=O)Nc2ccc(F)c([C@]3(C)CCSC(N)=N3)c2)nc1` [Compound 571], the pIC50 was no less than 6.00.

Turning to `C[C@@]1(c2cccc(NC(=O)c3nccnc3Cl)c2)CCSC(N)=N1` [Compound 59], the pIC50 was no less than 6.00.

Take `C#CCOc1cnc(C(=O)Nc2cncc([C@]3(C)CCSC(N)=N3)c2)cn1` [Compound 556]: the pIC50 was no less than 6.00.

As for `COCCOc1cnc(C(=O)Nc2cccc([C@]3(C)CCSC(N)=N3)n2)cn1` [Compound 592], the pIC50 is no less than 6.00.

For `C[C@@]1(c2cccc(NC(=O)c3ccc(OCCF)cn3)c2)CCSC(N)=N1` [Compound 97], the pIC50 was no less than 6.00.

In the case of `C[C@@]1(c2cc(NC(=O)c3cn4cc(C(F)(F)F)nc4cn3)ccc2F)CCSC(N)=N1` [Compound 651], the pIC50 is no less than 6.00.

`CC#CCOc1cnc(C(=O)Nc2cccc([C@]3(C)CC(C)(C)SC(N)=N3)c2)cn1` [Compound 695]: the pIC50 is no less than 6.00.

`C[C@@]1(c2cc(NC(=O)c3ccc(O)cn3)ccc2F)CCSC(N)=N1` [Compound 119]: the pIC50 was no less than 6.00.

For the compound `CC#CCOc1ccc(C(=O)Nc2cccc([C@]3(C)CCSC(N)=N3)c2)nc1` [Compound 35], the pIC50 was no less than 6.00.

`C#CCOc1cnc(C(=O)Nc2cncc([C@]3(C)CC(C)(C)SC(N)=N3)c2)cn1` [Compound 561]: the pIC50 was no less than 6.00.

Take `C[C@]1(c2cc(NC(=O)c3ncc(Cl)cc3Cl)ccc2F)N=C(N)SCC1=O` [Compound 687]: the pIC50 is no less than 6.00.

For the compound `C[C@@]1(c2cccc(NC(=O)c3cnc(C(N)=O)cn3)c2)CCSC(N)=N1` [Compound 68], the pIC50 is no less than 6.00.

As to `C[C@@]1(c2cc(NC(=O)c3cnc(OCC4CCO4)cn3)ccc2F)CCSC(N)=N1` (some centres unmarked) [Compound 672], the pIC50 was no less than 6.00.

On to `C#CCOc1cnc(C(=O)Nc2ccc(F)c([C@]3(C)CCSC(N)=N3)c2)cn1` [Compound 133], for which the pIC50 was no less than 6.00.

`C[C@@]1(c2cc(NC(=O)c3cn4cc(C#N)nc4cn3)ccn2)CCSC(N)=N1` [Compound 699]: the pIC50 is no less than 6.00.

On to `C[C@@]1(c2cc(NC(=O)c3ncccc3F)ccc2F)CCSC(N)=N1` [Compound 511], for which the pIC50 is no less than 6.00.

On to `C[C@@]1(c2cc(NC(=O)c3cnc(OCCF)cn3)ccc2F)CCSC(N)=N1` [Compound 132], for which the pIC50 is no less than 6.00.

Turning to `C[C@@]1(c2cc(NC(=O)c3cnc(N=[N+]=[N-])cn3)ccc2F)CCSC(N)=N1` [Compound 79], the pIC50 was no less than 6.00.

`C[C@@]1(c2cccc(NC(=O)c3cnc(Cl)cn3)c2)CCSC(N)=N1` [Compound 58]: the pIC50 was no less than 6.00.

With `C[C@@]1(c2cc(NC(=O)c3ncc(OCC(F)(F)F)nc3N)ccc2F)CCSC(N)=N1` [Compound 165], the pIC50 is no less than 6.00.

For the compound `COc1cnc(C(=O)Nc2ccnc([C@]3(C)CC(C)(C)SC(N)=N3)c2)cn1` [Compound 637], the pIC50 is no less than 6.00.

Consider `CC1(C)C[C@@](C)(c2cc(NC(=O)c3ccc(C#N)cn3)ccn2)N=C(N)S1` [Compound 696], for which the pIC50 was no less than 6.00.

For the compound `COCCOc1cnc(C(=O)Nc2ccc(F)c([C@]3(C)CC(C)(C)SC(N)=N3)c2)cn1` [Compound 601], the pIC50 is no less than 6.00.

In the case of `COCCOCCOc1cnc(C(=O)Nc2cccc([C@]3(C)CCSC(N)=N3)c2)cn1` [Compound 90], the pIC50 is no less than 6.00.

In the case of `Cc1ccc(C(=O)Nc2ccc(F)c([C@]3(C)CCSC(N)=N3)c2)s1` [Compound 532], the pIC50 is no less than 6.00.

Turning to `CC1(C)C[C@@](C)(c2cc(NC(=O)c3cnc(OCCF)cn3)ccc2F)N=C(N)S1` [Compound 605], the pIC50 is no less than 6.00.

Take `Cc1noc(C)c1-c1cnc(C(=O)Nc2ccc(F)c([C@]3(C)CCSC(N)=N3)c2)cn1` [Compound 523]: the pIC50 is no less than 6.00.

As for `COc1nccnc1C(=O)Nc1ccc(F)c([C@]2(C)CCSC(N)=N2)c1` [Compound 85], the pIC50 was no less than 6.00.

Take `CCOCCOc1cnc(C(=O)Nc2cccc([C@]3(C)CCSC(N)=N3)c2)cn1` [Compound 81]: the pIC50 was no less than 6.00.

`C[C@@]1(c2cccc(NC(=O)c3ccc(O)cn3)c2)CCSC(N)=N1` [Compound 110]: the pIC50 is no less than 6.00.

In the case of `Cc1ccc(C(=O)Nc2cncc([C@]3(C)CCSC(N)=N3)c2)s1` [Compound 485], the pIC50 was no less than 6.00.

`Cc1nc(-c2ccc(C(=O)Nc3ccc(F)c([C@]4(C)CCSC(N)=N4)c3)cc2)no1` [Compound 531]: the pIC50 was no less than 6.00.

For `C[C@@]1(c2cccc(NC(=O)c3cnc(OCCF)cn3)c2)CCSC(N)=N1` [Compound 565], the pIC50 is no less than 6.00.

With `C[C@@]1(c2cc(NC(=O)C3=NNC(=O)CC3)ccc2F)CCSC(N)=N1` [Compound 472], the pIC50 was no less than 6.00.
